Measurements published in the supplement of paper PMC10307832.

Legend:
Test in all cases: relative viability (nuclei count vs DMSO), 5 days (fraction); higher = more cells survive
Daporinad + Tozasertib = compound: O=C(/C=C/c1cccnc1)NCCCCC1CCN(C(=O)c2ccccc2)CC1 [Daporinad] + Cc1cc(Nc2cc(N3CCN(C)CC3)nc(Sc3ccc(NC(=O)C4CC4)cc3)n2)n[nH]1 [Tozasertib] (partner 0.1 µM)
Outline: (§1)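 Lung cancer cell lines in 1536-well plates were dosed by pin tool the day after seeding, either with one drug alone or with a fixed anchor-drug dose plus five library-drug doses (not always all listed) in √10 steps. After 5 days, cells were fixed and their nuclei stained in one step (final 0.05% Triton X-100, 1% formaldehyde, 1 ug/ml Hoechst), then counted on 4× images. Relative viability is the nuclei count in treated wells divided by that in vehicle wells. Values are medians of duplicate plates.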

R406 + Lapatinib = compound: COc1cc(Nc2ncc(F)c(Nc3ccc4c(n3)NC(=O)C(C)(C)O4)n2)cc(OC)c1OC [R406] + CS(=O)(=O)CCNCc1ccc(-c2ccc3ncnc(Nc4ccc(OCc5cccc(F)c5)c(Cl)c4)c3c2)o1 [Lapatinib] (partner 2 µM)
Outline: as §1

R406 + Palbociclib = compound: COc1cc(Nc2ncc(F)c(Nc3ccc4c(n3)NC(=O)C(C)(C)O4)n2)cc(OC)c1OC [R406] + CC(=O)c1c(C)c2cnc(Nc3ccc(N4CCNCC4)cn3)nc2n(C2CCCC2)c1=O [Palbociclib] (partner 0.5 µM)
Outline: as §1

Daporinad + Luminespib = compound: O=C(/C=C/c1cccnc1)NCCCCC1CCN(C(=O)c2ccccc2)CC1 [Daporinad] + CCNC(=O)c1noc(-c2cc(C(C)C)c(O)cc2O)c1-c1ccc(CN2CCOCC2)cc1 [Luminespib] (partner 0.01 µM)
Outline: as §1

With UMC-11 the relative viability (Daporinad + Tozasertib; first compound 0.0005 µM) was 0.21, the relative viability (Daporinad + Tozasertib; first compound 0.001581 µM) was 0.208 and the relative viability (Daporinad + Tozasertib; first compound 0.005 µM) was 0.207. It also gave a relative viability (Daporinad + Tozasertib; first compound 0.01581 µM) of 0.2, a relative viability (R406 + Lapatinib; first compound 0.08 µM) of 0.952 and a relative viability (R406 + Lapatinib; first compound 0.253 µM) of 1.08. For the same cell line, the relative viability (R406 + Lapatinib; first compound 0.8 µM) was 1.06, the relative viability (R406 + Lapatinib; first compound 2.53 µM) was 0.241 and the relative viability (R406 + Lapatinib; first compound 8 µM) was 0.378. It also gave a relative viability (R406 + Palbociclib; first compound 0.08 µM) of 0.314, a relative viability (R406 + Palbociclib; first compound 0.253 µM) of 0.339 and a relative viability (R406 + Palbociclib; first compound 0.8 µM) of 0.35. The relative viability (R406 + Palbociclib; first compound 2.53 µM) was 0.312, the relative viability (R406 + Palbociclib; first compound 8 µM) was 0.239 and the relative viability (Daporinad + Luminespib; first compound 0.0005 µM) was 1.09. For the same cell line, the relative viability (Daporinad + Luminespib; first compound 0.001581 µM) was 1.04, the relative viability (Daporinad + Luminespib; first compound 0.005 µM) was 1.26 and the relative viability (Daporinad + Luminespib; first compound 0.01581 µM) was 1.16.
